Data from patent publication US12459951B2, “Compounds that interact with RAS superfamily proteins for treatment of cancers, inflammatory diseases, rasopathies, and fibrotic disease” (SHY Therapeutics, LLC, priority 2022, dated 2025).
Read-outs that look alike come from different tables or passages of the source.

Legend:
Assay in all cases: Proliferation Assay (Cell Viability Assay)
Type in all cases: cell-based
[1] = test system: A549 (expressing KRas G12S mutant); conditions: Homo sapiens, A549, NSCLC
Description: (§1) Cell lines: Human tumor-derived cell lines were purchased from American Type Culture Collection. Human tumor-derived pancreatic cancer cell line MiaPaca-2 (expressing KRAS G12C mutant) and Panc-1 (expressing KRas G12D mutant), and Human non-small cell lung cancer (NSCLC) cell line A549 (expressing KRas G12S mutant) were grown in complete DMEM-High Glucose medium. Human colon cancer cell line SW-620 (expressing KRas G12V mutant) was grown in RPMI 1640 medium. All cell lines were supplemented with penicillin (100 U/mL), streptomycin (100 μg/mL), and 10% heat-inactivated FBS at 37° C. in a humidified incubator with 5% CO2.
(§2) Method: Cells were plated at 2000 to 5000 cells/well density in 96-wells plate and cultured overnight. Small molecules to be tested were added to the cells in the final concentration of 10 μM in the presence of 0.3% DMSO and 10% FBS and incubated for 2-4 days at 37° C. in a humidified incubator with 5% CO2. For IC50 value determination, serial dilutions of compounds were added to cells under the same conditions.
(§3) Assay: At the end of the incubation period, cell viability was determined using the CellTiter 96® Aqueous One Solution Cell Proliferation Assay according to manufacturer specifications (Promega, Madison, WI). The percentage of small molecules inhibition of cellular proliferation was calculated from raw data.
(§4) Cell lines: these Human tumor-derived cell lines were purchased from American Type Culture Collection. Human tumor-derived pancreatic cancer cell line MiaPaca-2 (expressing KRAS G12C mutant) and Panc-1 (expressing KRas G12D mutant), and Human non-small cell lung cancer (NSCLC) cell line A549 (expressing KRas G12S mutant), and Human melanoma cell line A375 (wild type Kras) were grown in complete DMEM-High Glucose medium. Human tumor-derived pancreatic cancer cell lines SU86.86 (expressing KRas G12D mutant), BxPC3 (expressing wild type K-Ras), and Human non-small cell lung cancer (NSCLC) cell lines NCI-H441 (expressing KRas G12S mutant), NCI-H1975 (expressing wild type KRas), NCI-H358 (expressing KRas G12C mutant), NCI-H1299 (expressing NRas Q61H mutant), and Human colon cancer cell line SW-620 (expressing KRas G12V mutant), Human triple negative breast cancer cell line HCC-1806 (expressing wild type KRas), and Human tumor-derived multiple myeloma cell line MM.1R (expressing wild type KRAS), were grown in RPMI 1640 medium. Human tumor-derived breast cancer cell line BT-549 (expressing wild type KRAS) was grown in RPMI 1640 medium in the presence of 11.8U insulin. Human tumor-derived pancreatic cancer cell line HPAF-II (expressing KRas G12D mutant), Human triple negative breast cancer cell line BT-20 (expressing wild type KRas), and Human colon cancer cell line LS123 (expressing KRas G12S mutant), were grown in EMEM medium. Human tumor-derived pancreatic cancer cell line CF-PAC1 (expressing KRas G12V mutant) was frown in IMDM medium, and Human colon cancer cell line HT29 (expressing wild type KRas) was grown in McCoy's 5A medium. The colon cancer cell line GP2d (expressing KRas G12D mutant) was purchased from MilliporeSigma and grown in DMEM-High Glucose medium. All cell lines were supplemented with penicillin (100 U/mL), streptomycin (100 μg/mL), and 10% heat-inactivated FBS at 37° C. in a humidified incubator with 5% CO2.
as §2, with “that were” for “to be”, “FBS,” for “FBS”

[2] = test system: Panc-1 (expressing KRas G12D mutant); conditions: Homo sapiens, Panc1, pancreatic
Description: as §1, §2, §3, §4
as §2, with “that were” for “to be”, “FBS,” for “FBS”

[3] = test system: SW-620 (expressing KRas G12V mutant); conditions: Homo sapiens, SW-620, colon
Description: as §1, §2, §3, §4
as §2, with “that were” for “to be”, “FBS,” for “FBS”

[4] = test system: GP2d (expressing KRas G12D mutant); conditions: Homo sapiens
Outline: (§5)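 Cells plated at 2000–5000/well overnight, then treated 2–4 days at 37 °C, 5% CO2 with compound at 10 μM single dose or serial dilutions for IC50, in 0.3% DMSO and 10% FBS. Viability read by CellTiter 96 Aqueous One (MTS); % proliferation inhibition calculated from raw data.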

[5] = test system: BT-549 (expressing wild type KRAS); conditions: Homo sapiens
Outline: as §5

[6] = test system: NCI-H358 (expressing KRas G12C mutant); conditions: Homo sapiens
Outline: as §5

[7] = test system: BT-20 (expressing wild type KRas); conditions: Homo sapiens; BT-20, Breast (TNBC), KRas WT
Outline: as §5

[8] = test system: A375 (wild type Kras); conditions: Homo sapiens, A-375
Outline: as §5

[9] = test system: HPAF-II (expressing KRas G12D mutant); conditions: Homo sapiens, pancreatic
Outline: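 Cells (2000–5000/well; CF-PAC1 in IMDM, HPAF-II in EMEM, NCI-H441 and NCI-H1299 in RPMI 1640) were plated overnight, then exposed to compounds at 10 μM or in serial dilutions for IC50 with 0.3% DMSO and 10% FBS for 2–4 days at 37 °C. Viability was read with CellTiter 96 Aqueous One, and percent inhibition was calculated.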

[10] = test system: MM.1R (expressing wild type KRAS); conditions: Homo sapiens, read-out: MM.1R IC50 (nM) Multiple Myloma
Outline: as §5

[11] = Proliferation assay, read-out: GP2d IC50 (nM) Colorectal
[12] = BT-549, Proliferation assay, BT549, read-out: BT549 IC50 (nM) TNBC
[13] = Proliferation assay, NCI-H358, read-out: NCI-H358 IC50 (nM) NSCLC
[14] = Proliferation assay, A375, read-out: A375 IC50 (nM) Melanoma

IC50 [1]	IC50 [2]	IC50 [3]	IC50 [5, 12]	IC50 ([5]; BT-549, Breast (TNBC), KRas WT, read-out: Proliferation assay IC50)	IC50 ([6]; NCI-H358, NSCLC, KRas G12C, read-out: Proliferation assay IC50)	IC50 [6, 13]	IC50 [7]	IC50 ([8]; A375, melanoma, KRas WT, read-out: Proliferation assay IC50)	IC50 [8, 14]	IC50 [10]	Structure (SMILES)	IC50 [4, 11]	IC50 ([4]; colon, KRas G12D, read-out: Proliferation assay IC50)	IC50 [9]
< 150 nM	< 150 nM	< 150 nM	1 to 10 nM	< 150 nM	< 150 nM	10 to 50 nM	< 150 nM	< 150 nM	1 to 10 nM	< 1 nM	COc1ccnc(Nc2nc(-c3nccn3C)nn3cc(-c4ccn(C(C)C)n4)c(C)c23)c1 [Compound 58, 6-(1-Isopropyl-1H-pyrazol-3-yl)-N-(4-methoxypyridin-2-yl)-5-methyl-2-(1-methyl-1H-imidazol-2-yl)pyrrolo[2,1-f][1,2,4]triazin-4-amine]	10 to 50 nM	< 150 nM	< 150 nM
–	–	–	10 to 50 nM	–	–	1 to 10 nM	–	–	> 50 nM	< 1 nM	COc1cc(Nc2nc(-c3nccn3C)nn3cc(-c4ccn(C)n4)c(C)c23)n[nH]1 [Compound 252, N-(5-Methoxy-1H-pyrazol-3-yl)-5-methyl-2-(1-methyl-1H-imidazol-2-yl)-6-(1-methyl-1H-pyrazol-3-yl)pyrrolo[2,1-f][1,2,4]triazin-4-amine]	1 to 10 nM	–	–
–	–	–	1 to 10 nM	–	–	1 to 10 nM	–	–	10 to 50 nM	< 1 nM	Cc1cc(Nc2nc(-c3nccn3C)nn3cc(-c4ccn(C)n4)c(C)c23)n[nH]1 [Compound 255, 5-Methyl-2-(1-methyl-1H-imidazol-2-yl)-6-(1-methyl-1H-pyrazol-3-yl)-N-(5-methyl-1H-pyrazol-3-yl)pyrrolo[2,1-f][1,2,4]triazin-4-amine]	1 to 10 nM	–	–
–	–	–	10 to 50 nM	–	–	1 to 10 nM	–	–	1 to 10 nM	< 1 nM	Cc1[nH]nc(Nc2nc(-c3nccn3C)nn3cc(-c4ccn(C)n4)c(C)c23)c1C [Compound 267, N-(4,5-Dimethyl-1H-pyrazol-3-yl)-5-methyl-2-(1-methyl-1H-imidazol-2-yl)-6-(1-methyl-1H-pyrazol-3-yl)pyrrolo[2,1-f][1,2,4]triazin-4-amine]	1 to 10 nM	–	–
